Tests used:
BPH1 = experiment: Crystal violet proliferation assay, BPH1; format: cell-based; details: BPH1, non-tumorigenic, 72 h treatment, mean; for IC50: Homo sapiens, BPH-1
Protocol: (§1) Cells were seeded at a density of 2 × 10^4 in 96-well plates and left to adhere overnight before treatment with the inhibitors. After 72 h of treatment, cells were fixed in 2% paraformaldehyde for 1 h, washed 3× with ddH2O and left to dry. 0.04% crystal violet (dissolved in ddH2O) was added to each well and the plates incubated for 1 h. The plates were again washed 3× with ddH2O and left to dry. Crystal violet was solubilised with 10% acetic acid (1 h at room temperature with rocking) and the optical density of each well measured at 570 nm with a plate reader (CLARIOstar, BMG Labtech, Germany).
(§2) (A) The non-tumorigenic controls PNT1A and BPH1, and prostate cancer cell lines LNCaP, C42, C42B, 22RV1, DU145 and PC3 were seeded 24 h before treatment with a dose range of the thieno[2,3-b]pyridine compounds (DJ97, DJ144, DJ145, DJ154 and DJ160). After 72 h of treatment, cells were fixed, stained with crystal violet and absorbance measured using a spectrophotometer microplate reader (FLUOstar Omega) at 490 nm. Mean ± SE of three independent repeats (six replicates for each concentration per experiment). (B) Western blotting was performed on lysates from the different cell lines and membranes probed with antibodies specific for PLCγ1, PLCγ2, AR and ⍺-tubulin. (C) PC3 cells were seeded in 10 cm plates and treated with a dose range of DJ160 for 24 h. Cells were collected and PLC activity measured, and enzymatic activity calculated. Mean of 3 repeats ± SD. TEXT PRINTED IN THE PICTURE: (C) DJ160: PLC activity (mol/min): 0.19 ± 0.005 (DJ160 (μM): 0); PLC activity (mol/min): 0.19 ± 0.005 (DJ160 (μM): 0.01); PLC activity (mol/min): 0.17 ± 0.005 (DJ160 (μM): 0.1); PLC activity (mol/min): 0.23 ± 0.004 (DJ160 (μM): 1); PLC activity (mol/min): 0.22 ± 0.010 (DJ160 (μM): 10)

C42B = experiment: Crystal violet proliferation assay, C42B; format: cell-based; details: AR positive, 72 h treatment, mean
Protocol: as §1, §2

PC3 = experiment: Crystal violet proliferation assay, PC3; format: cell-based; details: PC3, AR negative, 72 h treatment, mean
Protocol: as §1, §2

22RV1 = experiment: Crystal violet proliferation assay, 22RV1; format: cell-based; details: Homo sapiens; 22RV1, AR positive; 72 h treatment; mean
Protocol: as §1, §2

C42 = experiment: Crystal violet proliferation assay, C42; format: cell-based; details: C42, AR positive, 72 h treatment, mean
Protocol: as §1, §2

DU145 = experiment: Crystal violet proliferation assay, DU145; format: cell-based; details: Homo sapiens, DU-145; DU145, AR negative; 72 h treatment; mean
Protocol: as §1, §2

PNT1A = experiment: Crystal violet proliferation assay, PNT1A; format: cell-based; details: Homo sapiens, non-tumorigenic, 72 h treatment, mean
Protocol: as §1, §2

LNCaP = experiment: Crystal violet proliferation assay, LNCaP; format: cell-based; details: AR positive, 72 h treatment, mean
Protocol: as §1, §2

PC3 cells [1] = experiment: Fluorescent imaging: multinucleation and cell size; format: cell-based; details: 1 μM, 24 h, no multinucleation without inhibitors
Protocol: Cells were seeded on glass coverslips and incubated overnight before treatment with the compounds. Cells were incubated for 24 h with the thieno[2,3-b]pyridines and fixed with 2% paraformaldehyde for 15 min at RT. Cells were washed 3 times with PBS and 0.1% Triton X-100 in PBS added for 10 min at RT. The washes were repeated and cells blocked with 1% BSA in 0.5% Tween for 30 min. Primary antibody (α-alpha-tubulin, clone B-5-1-2, Sigma Aldrich, USA) was diluted in the block buffer, added to the cells and incubated for 1 h. The cells were washed 3 times with PBS containing 0.5% Tween and secondary antibody applied (anti-mouse Alexa Fluor 568, Abcam, UK). […] To calculate the percentage of cells with multinucleation, ten random fields of view were imaged per slide using low magnification (10×) and the number of cells with more than 1 nucleus counted. Alterations in cell size were quantified using Fiji ([Schindelin et al. 2012]).
Figure 5 The thieno[2,3-b]pyridine compounds promote multinucleation and lead to an increase in cell size. […] Cells were PI stained and DNA content was measured using flow cytometry. […] Confocal microscopy was performed and five random images were taken for each treatment to quantify (C) percentage multinucleation and (D) relative cell size. […]

PC3 cells [2] = experiment: Cell cycle analysis (PI staining, flow cytometry); format: cell-based; details: 1 μM, 24 h
Protocol: Cells were seeded in 12-well plates, incubated overnight and treated with the inhibitors. The cells were incubated for 72 h before harvesting. Cells were pelleted (200 g, 5 min) and washed with PBS. The wash was removed and cells fixed with 70% EtOH, added dropwise with agitation. The cells were incubated at 4°C overnight, pelleted, washed with PBS and resuspended in PBS containing PI and RNase A, as previously described ([Brooke et al. 2011]). The percentage of cells in each phase of the cell cycle was subsequently quantified using an Accuri C6 Flow Cytometer (BD Biosciences, USA).
Figure 3 The thieno[2,3-b]pyridine compounds promote G2/M cell cycle arrest in PC3 cells. PC3 cells were seeded at 30% confluence for 48 h and treated with 1 μM of the compounds (97, 144, 145, 154 and 160) or DMSO for (A) 24, (B) 48 and (C) 72 h. Cells were PI stained and DNA content measured using flow cytometry. The percentage of cells in each phase was calculated and representative histograms generated using the ACCURI C6 software (BD Biosciences). Data are the mean of three independent repeats.

[3] = tested on: cultured human prostate tumours; experiment: Patient-derived tumour explants, immunohistochemistry of cleaved caspase 3; format: cell-based; details: explants of four patients, no/minimal apoptosis in patients 1 and 2
Protocol: (§3) Explant experiments were undertaken using published methodology ([Centenera et al. 2018]). Biopsy tissue from prostate cancer patients was immediately placed in ice-cold medium straight from surgery. In the lab, tissue was dissected and seeded onto a sponge (SSP101010-32, Surgispon, Anser Medical) in 24-well plates. The explants were treated with compound 160 (100 nM) or the antiandrogen enzalutamide (10 μM) and incubated at 37°C for 48 h.
The explants were formalin fixed and wax embedded. Immunohistochemistry was performed to investigate the expression of cleaved caspase 3 (Cell Signalling 9661S (1/200)) as a marker of apoptosis. Protein expression was detected using the REAL EnVision Detection System (Peroxidase/DAB, K500711-2, DAKO).
Figure 7 Thieno[2,3-b]pyridine DJ160 inhibits activity in cultured human prostate tumours. Tumours were dissected into 1 mm^3 pieces then treated with the drugs (100 nM DJ160 and 10 μM enzalutamide (ENZA)) or vehicle control (DMSO, VC) and incubated for 48 h. (A) RNA was extracted and qPCR was performed to quantify the expression of PCNA, used as a marker of proliferation. (B) Samples were formalin-fixed and immunohistochemistry performed for cleaved caspase 3 and the number of cells per field counted. Example images for patient 3 are provided (20× magnification).

PLC = PLC activity assay in treated PC3 cells; format: cell-based; details: 24 h; for PLC activity: mean of 3 repeats ± SD, 0 μM control 0.19 ± 0.005
Protocol: PC3 cells were grown in 10 cm dishes and treated with different concentrations of DJ160 for 24 h. Cells were collected and enzymatic activity quantified using a PLC Activity Assay Kit (Sigma Aldrich), following the manufacturer’s instructions.
as §2

[4] = tested on: cultured human prostate tumours; experiment: Patient-derived tumour explants, qPCR of PCNA (proliferation marker); format: cell-based; details: explants of four patients, 100 nM DJ160, 48 h
Protocol: as §3
Explants were snap frozen until RNA was extracted using a Monarch RNA extraction kit (NEB), following disruption of frozen tissue utilising mechanical disruption and enzymatic digestion with proteinase K. Then, 2 μg of RNA was reverse transcribed using Precision Nanoscript2 RT Kit (Primer Design, UK). Changes in gene expression were measured using SYBR Green Fast Master Mix (Life Technologies, USA) and QuantStudio 7 Flex Real-Time PCR System (Applied Biosystems, USA). […]
Figure 7 Thieno[2,3-b]pyridine DJ160 inhibits activity in cultured human prostate tumours. […] (A) RNA was extracted and qPCR was performed to quantify the expression of PCNA, used as a marker of proliferation. (B) Samples were formalin-fixed and immunohistochemistry performed for cleaved caspase 3 and the number of cells per field counted. […]

breast cancer cell lines = details: across various breast cancer cell lines; cited from earlier work

Row | SMILES | IC50 (PC3; Homo sapiens, 72 h) [µM] | IC50 (22RV1) [µM] | IC50 (DU145) [µM] | IC50 (LNCaP; Homo sapiens, 72 h) [µM] | IC50 (BPH1) [µM] | IC50 (C42B) [µM] | IC50 (C42; C4-2, 72 h) [µM] | IC50 (PNT1A) [µM] | IC50 (nM) (BPH1) | G2/M cell cycle arrest (PC3 cells [2]) | also measured
1 | Nc1c(C(=O)Nc2cccc(Cl)c2)sc2nc3c(cc12)CCCC3 [DJ154] | 0.723 | 0.521 | 0.66 | 0.452 | 0.806 | 0.512 | 0.246 | 0.902 |  |  | 
2 | Nc1c(C(=O)Nc2cccc(Br)c2)sc2nc3c(cc12)C(=O)CCC3 [DJ145] | 0.673 | 0.499 | 1.96 | 0.268 | 4.36 | 0.23 | 0.468 | 0.708 | μM range |  | 
3 | Cc1c(Cl)cccc1NC(=O)c1sc2nc3c(cc2c1N)C(=O)CCC3 [DJ160] | < 0.05 | 0.1 | 0.0839 | < 0.05 | 0.151 | 0.054 | < 0.05 | 0.0826 |  | most pronounced effect | percentage of cells with multinucleation (PC3 cells [1]): more than 30%; IC50 (PC3): 0.0465 µM; cleaved caspase 3-positive cells (apoptosis) ([3]; 100 nM DJ160, 48 h): increase in the percentage of cleaved caspase-positive cells in patient samples 3 and 4; PLC activity (PLC; DJ160 0.01 μM): 0.19 ± 0.005 mol/min; PLC activity (PLC; DJ160 0.1 μM): 0.17 ± 0.005 mol/min; PLC activity (PLC; DJ160 1 μM): 0.23 ± 0.004 mol/min; PLC activity (PLC; DJ160 10 μM): 0.22 ± 0.010 mol/min; effect upon pan-PLC activity (PLC; dose range): little effect; reduction of PCNA expression compared to untreated samples [4]: approximately 80%; IC50 (C42): 0.029 µM; IC50 (breast cancer cell lines): > 0.1 µM; IC50 (LNCaP): 0.0449 µM
4 | CNC(=O)c1ccc(N2C(=S)N(c3ccc(C#N)c(C(F)(F)F)c3)C(=O)C2(C)C)cc1F [enzalutamide, reference compound] |  |  |  |  |  |  |  |  |  |  | cleaved caspase 3-positive cells (apoptosis) ([3]; 10 μM enzalutamide, 48 h): increase in the percentage of cleaved caspase-positive cells in patient samples 3 and 4

Second part, led by results:

Row | IC50 (PC3; Homo sapiens, 72 h) [µM] | IC50 (22RV1) [µM] | IC50 (DU145) [µM] | IC50 (LNCaP; Homo sapiens, 72 h) [µM] | SMILES | IC50 (BPH1) [µM] | IC50 (C42B) [µM] | IC50 (C42; C4-2, 72 h) [µM] | IC50 (PNT1A) [µM] | IC50 (nM) (BPH1) | G2/M cell cycle arrest (PC3 cells [2]) | also measured
5 | 0.214 | 0.185 | 0.271 | 0.0594 | COc1cccc(NC(=O)c2sc3nc4c(cc3c2N)C(=O)CCC4)c1 [DJ144] | 0.443 | 0.15 | 0.187 | 0.238 |  | most pronounced effect | 
6 | 0.573 | 0.305 | 1.4 | 0.482 | Nc1c(C(=O)Nc2cccc(Cl)c2)sc2nc3c(cc12)C(=O)CCC3 [DJ97] | 3.55 | 0.333 | 0.334 | 0.324 | μM range |  | 

Reference: article PMC12243099, “Thieno[2,3-b]pyridine compounds potently inhibit prostate cancer growth and motility” (Endocrine Oncology, 2025)
